Broadly, the EC50 is the concentration that produces a half-maximal response. A high value points to a less potent agent. The AUC(0-inf) is total exposure, with the tail of the curve extrapolated. A low value points to less exposure. The term clearance denotes a measure of how efficiently the substance is removed, as volume per time. A high value points to a high capacity for elimination. What is called half-life is the time in which the quantity being followed falls by half. A lower half-life goes with fast loss. Usually Cmax stands for the highest concentration seen after dosing. By Tmax is commonly meant the time at which the peak concentration occurs. The IC50 is the concentration needed to halve the response being measured. Lower therefore signals inhibition by little substance.

The target in one data set is T1, ERα (ESR1 protein) (Homo sapiens, UniProt P03372).
T1 construct: After incubating cells with the indicated compounds for 18-24 hours, cell lysates were prepared; endogenous in cells; host or cells: MCF-7
T1 sequence (P03372 1-595): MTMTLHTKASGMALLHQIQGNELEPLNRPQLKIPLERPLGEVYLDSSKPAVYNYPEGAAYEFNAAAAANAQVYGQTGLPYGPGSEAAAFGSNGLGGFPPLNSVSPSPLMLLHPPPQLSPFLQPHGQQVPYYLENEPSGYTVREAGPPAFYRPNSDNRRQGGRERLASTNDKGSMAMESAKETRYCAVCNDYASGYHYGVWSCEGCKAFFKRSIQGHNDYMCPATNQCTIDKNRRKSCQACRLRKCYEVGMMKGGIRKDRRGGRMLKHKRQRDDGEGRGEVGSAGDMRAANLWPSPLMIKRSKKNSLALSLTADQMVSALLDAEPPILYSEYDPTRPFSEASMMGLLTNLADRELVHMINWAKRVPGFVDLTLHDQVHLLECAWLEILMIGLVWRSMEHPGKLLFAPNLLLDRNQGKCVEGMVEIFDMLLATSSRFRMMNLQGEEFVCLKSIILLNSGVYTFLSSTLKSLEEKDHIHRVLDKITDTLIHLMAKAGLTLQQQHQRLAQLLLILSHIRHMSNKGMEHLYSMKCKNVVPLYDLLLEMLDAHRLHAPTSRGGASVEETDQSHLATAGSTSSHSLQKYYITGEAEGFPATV
Kind of data set: ERα EC50 determination (Western blot band density, MCF-7 cells). It counts as cell-based. Particulars: 18-24 hours, ERα degradation. The text has this: A DMSO control was included to enable a determination of the relative efficacy of test compounds. […] The protein concentration was quantified using BCA kit.
On the technique in general: A western blot detects proteins with antibodies after separation by electrophoresis.

Data set [1] can be described thus: Pharmacokinetic determination in mice. Particulars: mouse. It counts as in vivo, female CD mice. Here is the method:
(§1) Pharmacokinetic Determination
(§2) Grouping female CD mice weighing 20-30 g or female SD rats weighing 200-300 g randomly to two groups; one group was administered with test compound at a dose of 3.0 mg/kg by intravenous injection, the other group was administered with test compound at a dose of 10.0 mg/kg orally. The formulation for IV groups were DMSO/PEG400/150 mM glycine (pH 9) (5/10/85) and the formulation for PO groups were PEG400/PVP/Tween 80/0.5% CMC in water (9/0.5/0.5/90). After administering, blood samples of intravenous injection group were collected at time points of predose, 0.0833, 0.25, 0.5, 1, 2, 4, 8, 12 and 24 h; blood samples of oral group were collected at time points of predose, 0.25, 0.5, 1, 2, 4, 8, 12, and 24 h. Standard curve was plotted based on concentrations of the samples in a suitable range, the concentrations of test compounds in plasma samples were determined by using LC-MS/MS. Pharmacokinetic parameters were calculated according to drug concentration-time curve using a noncompartmental method by WinNonLin (Phoenix™, version 6.1) or other similar software.

Data set [2] deals with T2, ESR1 protein (estrogen receptor alpha) (Homo sapiens, UniProt P03372).
T2 construct: After incubating cells with the indicated compounds for 18-24 hours, cell lysates were prepared; endogenous in cells; host or cells: MCF-7
T2 sequence (P03372 1-595): T1 sequence (P03372 1-595)
The data set can be described thus: ER degradation determination by Western blot in MCF-7 cells. It counts as cell-based. Particulars: 10 μM, 18-24 hours. Here is the method:
ER Degradation Determination by Western Blot
MCF-7 cells were plated at 0.3 million cells/mL (3 mL/well) in 6-well plates in experiment media and incubated at 37° C., 5% CO2 for 48 hours. A 10× solution of compounds were made in DMSO and added the solution to the cells to achieve a final concentration of 10 μM. A DMSO control was included to enable a determination of the relative efficacy of test compounds. […] After incubating cells with the indicated compounds for 18-24 hours, cell lysates were prepared (2× Cell lysis buffer: 100 mM Tris, pH 8, 300 mM NaCl, 2% NP40, 1% Na deoxycholate, 0.04% SDS and 2 mM EDTA) and mixed thoroughly and incubated on ice. The protein concentration was quantified using BCA kit. […] The gel was then transferred onto a nitrocellulose membrane. […] GAPDH protein was used as an internal control.

Data set [3] is described as follows: Pharmacokinetic determination in rats. Type of data set: in vivo, female SD rats. Particulars: rat. Here is the method: as §1, §2
The subject of a further data set is MCF7 cells. Kind of data set: Breast cancer cell proliferation assay (MCF-7), Cell Titer-Glo. Type of data set: cell-based. Particulars: Homo sapiens, 120 h, 5 days of compound exposure. Here is the method:
Breast Cancer Cell Proliferation Assay (MCF-7)
MCF7 cells were expanded and maintained in DMEM (Hyclone SH30272.01, Phenol red free) with NEAA (Gibco11140-050), Na-pyruvate (Gibco 11360-070) and Re-stripped Charcoal stripped FBS (Gemini 100-119)). The cells were adjusted to a concentration of 3,000 cells per mL and incubated (37° C., 5% CO2). The following day a 10 point, serial dilution of compounds was added to the cells at a final concentration ranging from 10 μM to 0.000005 μM for test compounds (17β-estradiol was used as a control). Additional cells were plated in 30 wells to serve as the day 1 (pretreatment) comparison. After 5 days of compound exposure, Cell Titer-Glo reagent was added to the cells and the relative luminescence units (RLUs) of each well was determined Cell Titer-Glo was also added to 32 μL of medium without cells to obtain a background value. The plates were allowed to incubate at room temperature for 10 minutes to stabilize luminescent signal and the luminescence signal was recorded with EnSpire. The relative increase in cell number of each sample is determined as follows: (RLU sample-RLU background/RLU estrogen only treated cells-RLU background)×100=[…].

In the next data set the target is T3, estrogen receptor (Homo sapiens, UniProt P03372).
T3 sequence (P03372 1-595): T1 sequence (P03372 1-595)
Particulars: 500 mg monthly dose; cited from earlier work.

Where [4] appears, read: female, CD, plasma, IV, 3.0 mg/kg.
Setting [5] is: female, CD, plasma, PO, 10.0 mg/kg.
Setting [6] is: female, SD, plasma, IV, 3.0 mg/kg.
Where [7] appears, read: female, SD, plasma, PO, 10.0 mg/kg.

`CC/C(=C(\c1ccc(O)cc1)c1ccc(/C=C/C(=O)O)cc1)c1ccc(F)cc1Cl` [Example 1, (E)-3-(4-((E)-2-(2-chloro-4-fluorophenyl)-1-(4-hydroxyphenyl)but-1-en-1-yl)phenyl)acrylic acid]: at ERα (ESR1 protein), the EC50 was < 25 nM. Also, the AUC(0-inf) in data set [1] (setting [4]) is 2.4 µM·h; in data set [1] (setting [5]) it was 7 µM·h; in data set [3] (setting [6]) it was 6.3 µM·h; in data set [3] (setting [7]), 11.1 µM·h. Also, the values for the clearance in data set [1] (setting [4]) and in data set [3] (setting [6]) were 49.6 mL/min/kg and 19 mL/min/kg, respectively. For the same compound, the half-life in data set [1] (setting [4]) is 3.9 h; in data set [1] (setting [5]) it was 3.4 h; in data set [3] (setting [6]), 3.9 h; in data set [3] (setting [7]), 8 h. Further, the Vd was found to be 6 L/kg in data set [1] (female, CD, plasma, IV, 3.0 mg/kg, read-out: Vdss) and 2.9 L/kg in data set [3] (female, SD, plasma, IV, 3.0 mg/kg, read-out: Vdss). In addition, the figures for the Cmax in data set [1] (setting [5]) and in data set [3] (setting [7]) were 2.5 µM and 5.7 µM, respectively. The Tmax in data set [1] (setting [5]) worked out at 0.25 h; in data set [3] (setting [7]), 0.5 h. In addition, the F in data set [1] (PO, 10.0 mg/kg) is 88%; in data set [3] (PO, 10.0 mg/kg), 53%. Also, the ERα % degradation result in data set [2] was “B (ERα % degradation < 80%)”. Besides, the IC50 with MCF7 cells was ≤ 25 nM.
As to `C[C@]12CC[C@@H]3c4ccc(O)cc4C[C@@H](CCCCCCCCC[S+]([O-])CCCC(F)(F)C(F)(F)F)[C@H]3[C@@H]1CC[C@@H]2O` (stereo partly drawn) [fulvestrant], the “turnover of the receptor in patient samples” value at estrogen receptor is reported as “less than 50%”. The ERα % degradation result in data set [2] is given as “A (ERα % degradation ≥ 80%)”. For the same compound, in the data set on MCF7 cells, the IC50 was ≤ 25 nM.
Turning to `C[C@@H]1Cc2c([nH]c3ccccc23)[C@@H](c2c(F)cc(/C=C/C(=O)O)cc2F)N1CC(C)(C)F` [AZD9496], the ERα % degradation entry in data set [2] was “A (ERα % degradation ≥ 80%)”. For the same compound, the IC50 in the data set on MCF7 cells was ≤ 25 nM.
In the case of `CC/C(=C(/c1ccc(/C=C/C(=O)O)cc1)c1ccc2[nH]ncc2c1)c1ccc(F)cc1Cl` [ARN810], in the data set on MCF7 cells, the IC50 is ≤ 25 nM.

These data come from patent US20210094899A1, “ACRYLIC ACID ANALOGS” (Recurium IP Holdings, LLC, priority 2017, published 2021).
